Several values for one entry are separate records, joined by “and”; a condition that tells them apart may be missing. Identical values can stand only once. Counter-ions that a name gives are not always drawn.
Assays:
[1] = WST-1 cytotoxicity test, HT-29; assay type: cell-based; settings: human, HT-29 cells, 48 h, WST-1, mean ± SD of three experiments, read-out: relative viability (%) compared to untreated control; for viability at 48 h, 10 µM: HT-29, 10 µM; for viability at 48 h, 100 µM: HT-29, 100 µM
Protocol: (§1) In this study, the cytotoxic effects of nine new compounds (2, 3, 4, 5, 6, 7, 8, 9, 10) were tested on 10 human cell lines (nine cancer and one non-cancer cell line). The cell lines were treated with each compound at concentrations of 10 µM and 100 µM for 48 h. The proliferation capacity of the treated cells was determined by WST-1 test and compared against the proliferation rate of the untreated control cells (100%).
(§2) The cell lines Jurkat, MOLT-4, A2780, A549, HT-29, PANC-1, HeLa, MCF-7, SAOS-2, and MRC-5 (all purchased from Sigma Aldrich, Czech Republic) were included in this study. All cell lines were maintained according to the provider’s guidelines, and plated and treated in 96-well plates (500 to 30 × 10^3 cells per well). The tested compounds 2, 3, 4, 5, 6, 7, 8, 9, and 10 were dissolved in 0.1% DMSO and kept in 10 mM stock solutions. Before use, the stock solution was diluted in culture media at ratios of 1:100 and 1:1000. The studied cell lines were treated with the compounds 2, 3, 4, 5, 6, 7, 8, 9, and 10 at concentrations of 10 and 100 µM for 48 h. Control cells were tested in culture media with and without DMSO (0.1%). The cells were also treated with 1 µM doxorubicin as a cytotoxicity control.
(§3) The WST-1 (2-(4-iodophenyl)-3-(4-nitrophenyl)-5-(2,4-disulfophenyl)-2H-tetrazolium, monosodium salt) test (Roche, Mannheim, Germany) was used according to the manufacturer’s protocol to determine cell viability in all 10 cell lines 48 h after treatment with the tested compounds. The cells were analyzed in a Tecan Infinite M200 spectrometer (Tecan Group, Männedorf, Switzerland) at 440 nm.

[2] = WST-1 cytotoxicity test, HeLa; assay type: cell-based; settings: human, HeLa cells, 48 h, WST-1, mean ± SD of three experiments, read-out: relative viability (%) compared to untreated control
Protocol: as §1, §2, §3

[3] = Safe use evaluation in vivo (MTD, symptoms, blood biochemistry, histopathology); parameters: key to piloerection / ataxia / prostration / tremor / excitation / saber-like tail / stooping / hyper/hypoventilation / drop of eyelids / lacrimation / convulsion: + (mild); ++ (moderate); +++ (severe); settings: both sexes, mouse, in vivo, ip; BALB/c mice, i.p., two males and two females per group; read-out: MTD (maximum tolerated dose)
From the text: (§4) Mild to moderate signs of intoxication could be observed once the MTD (maximum tolerated dose) was reached. In vivo, MTD is described as the highest dose of a given compound that can be administered before showing signs of toxicity (based on the same dose regimen or series) and whose excess would be expected to be fatal, yielding unreliable results. Therefore, a staged approach (including core and intermediate dose levels) has become a suitable strategy in this regard.
(§5) The symptoms described in Tables S1 (in Supplementary Materials) and S2 (in Supplementary Materials) diminished spontaneously within 2 h. After observing these symptoms, MTD thresholds were set at 100, 200, 100, 200, 2000, and 650 mg/kg for compounds 4, 5, 6, 7, 8, and 10, respectively. Animals receiving MTD were further examined by necropsy 48 h after administration. Plasma (reflecting biochemical changes in blood), intestine with mesentery (site of administration), and liver and kidney (elimination organs) were collected to evaluate the toxic potential of the tested compounds. For evaluation of the impact of the compounds on organ function, we performed blood biochemistry test 48 h after administration. The test focused on seven important indicators: glucose and amylase for normal function of pancreas, alanine aminotransferase (ALT), aspartate aminotransferase (AST), and alkaline phosphatase (ALP) for the normal function of liver, and urea and creatinine for the normal function of kidneys. […] According to Thoolen et al., focal necrosis can be occasionally seen in untreated rodents and therefore is not pathognomonic of hepatotoxicity, which is consistent with our findings.
(§6) Both male and female BALB/c mice (Velaz s r.o., Prague, Czech Republic) with an average weight of 21 ± 0.8 g and 21 ± 0.8 g, respectively, were selected for the safe use evaluation in vivo. The mice were housed in environmentally controlled breeding units (Faculty of Military Health Sciences vivarium; temperature 21 ± 1 °C, 12/12 h light/dark cycle) with access to food (Cerea corp., Pardubice, Czech Republic) and water ad libitum. The acclimatization period of the mice was at least 10 days before each experiment. All experimental procedures and protocols were reviewed and approved by the Ethics Committee of the Faculty of Military Health Sciences in Hradec Kralove, University of Defence in Brno. Compounds 2, 3, 4, 5, 6, 7, 8, 9, and 10 were dissolved in physiological saline solution (B. Braun Melsungen AG, Melsungen, Germany) and injected intraperitoneally (i.p.) into the corresponding mouse groups, which were composed of two males and two females. Several doses were administered to determine the maximum tolerated dose (MTD), which was assessed by close observation for signs of toxicity within the first two hours after administration of the compounds, and then regularly over the following 48 h. The observed symptoms were registered according to the laboratory Animal Science Association UK guidelines (for a detailed description, see [36]. After 48 h, the surviving animals were euthanized with CO2 and evaluated by basic macroscopic necropsy. Venous blood was collected into heparinized tubes (Scanlab Systems, Prague, Czech Republic) and the plasma was separated in a U-320R centrifuge (Boeco, Hamburg, Germany) to further evaluate the toxic potential of the tested compounds. The concentrations of glucose, urea, and creatinine and the levels of alanine aminotransferase (ALT), aspartate aminotransferase (AST), alkaline phosphatase (ALP), and amylase were evaluated in a qualified biochemical laboratory of the University Hospital Hradec Kralove (Hradec Kralove, Czech Republic). Additionally, intestine, liver, and kidney samples were collected for histopathologic examination. […]

[4] = system: BALB/c mice; assay: as above; parameters: key to piloerection / ataxia / prostration / tremor / excitation / saber-like tail / stooping / hyper/hypoventilation / drop of eyelids / lacrimation / convulsion: + (mild); ++ (moderate); +++ (severe); settings: for ALP / ALT / AST / Amylase / Creatinine / Glucose / Urea: plasma 48 h after MTD i.p.
From the text: as §4, §5, §6

[5] = female BALB/c mice, animals 1 and 2
[6] = female mice, at MTD i.p., animals 1 and 2
[7] = male BALB/c mice, animals 1 and 2
[8] = male mice, at MTD i.p., animals 1 and 2

SMILES | viability at 48 h, 10 µM [1] [%] | viability at 48 h, 100 µM [1] [%] | viability at 48 h, 10 µM [2] [%] | viability at 48 h, 100 µM [2] [%] | MTD at 48 h [3] [mg/kg] | ALP [4, 5] | ALT [4, 5] | AST [4, 5] | Amylase [4, 5] | Creatinine [4, 5] | Glucose [4, 5] | Urea [4, 5] | excitation [4, 6] | tremor [4, 6] | ALP [4, 7] | ALT [4, 7] | AST [4, 7] | Amylase [4, 7] | Creatinine [4, 7] | Glucose [4, 7] | further results
OCCN1CCN(CC(O)CN2CCN(CCO)CC2)CC1 [Compound 8, 1.3-bis [4-(2-hydroxyethyl)piperazin-1-yl)propan-2-ol tetrahydrochloride] | 101 ± 1 | 154 ± 11 | 103 ± 4 | 100 ± 18 | 2000 | 121 U/L and 81 U/L | 20 U/L and 23 U/L | 78 U/L and 67 U/L | 1798 U/L and 2455 U/L | 79 µg/dL | 171 mg/dL and 210 mg/dL | 35 mg/dL and 40 mg/dL | + | + | 71 U/L and 82 U/L | 26 U/L and 22 U/L | 65 U/L and 56 U/L | 2674 U/L and 2327 U/L | 57 µg/dL and 56 µg/dL | 202 mg/dL and 249 mg/dL | Urea [4, 7]: 41 mg/dL and 37 mg/dL; excitation [4, 8]: +; tremor [4, 8]: +; weight at 24 h (%) [4, 8]: -3.8%; weight at 48 h (%) [4, 8]: -2.9%
Cl.Cl.Cl.OCCN1CCN(CC(O)CNc2ccccc2)CC1 (stereo not drawn) [Compound 10, 1-(phenylamino]-3-[4-(2-hydroxyethyl)piperazin-1-yl)propan-2-ol trihydrochloride] | 104 ± 11 | 113 ± 2 | 110 ± 7 | 121 ± 3 | 650 | 67 U/L and 73 U/L | 27 U/L and 24 U/L | 55 U/L and 56 U/L | 1939 U/L and 1826 U/L | 68 µg/dL and 67 µg/dL | 225 mg/dL and 178 mg/dL | 38 mg/dL | + | + | 42 U/L and 61 U/L | 24 U/L and 30 U/L | 58 U/L and 51 U/L | 2212 U/L and 2080 U/L | 34 µg/dL | 189 mg/dL and 236 mg/dL | histopathological change: focal necrosis ([4]; at MTD i.p., necropsy 48 h after administration, one animal each): five small foci; ataxia [4, 6]: +; convulsion [4, 6]: +; hyper/hypoventilation [4, 6]: +; prostration [4, 6]: ++; weight at 24 h (%) [4, 6]: -1.5% and -5.6%; Urea [4, 7]: 47 mg/dL and 43 mg/dL; ataxia [4, 8]: +; excitation [4, 8]: +; hyper/hypoventilation [4, 8]: +; prostration [4, 8]: ++; tremor [4, 8]: +

Reference: article PMC7038073, “Substituted Piperazines as Novel Potential Radioprotective Agents” (Molecules, 2020)
